Results taken from patent publication US4402964A, “N-Aryl-N'-(3-methyl or ethyl-4-oxothiazolidinylidene)ureas useful for the treatment of epilepsy” (McNeilab, Inc., priority 1981, dated 1983).

Tested on: tonic extensor seizure caused by applying an electric shock to mice via corneal electrodes
Assay: Maximal Electroshock (MES) test in mice (anticonvulsant activity)
Format: in vivo
Set-up: key to Mice MES test results (IA): IA: inactive
Details: for ED50: Mus musculus, po, read-out: ED50, Mice MES test results dose (50% of the animals show a block of tonic extensor convulsions)
Source text: Activity in the MES test, indicating anticonvulsant activity, is characterized by a block of the tonic extensor seizure caused by applying an electric shock to mice via corneal electrodes as described in Swinyard et al., J. Pharmacol. Exp. Ther., 106, 319-330 (1952) and recorded as % block. A more recent description of current practice in anticonvulsant drug screening has also been reported by Swinyard et al., Epilepsia, 19, 409-428 (1978).
In said table, the ED50 result means that 50% of the animals show a block of tonic extensor convulsions in the MES test.

[1] = 10 mg/kg p.o., mice, only dose available

Structure (SMILES)	ED50 (mice, p.o.) [mg/kg]	further results
Cc1cccc(C)c1NC(=O)N=C1SCC(=O)N1C [Example I, N-(2,6-dimethylphenyl)-N'-(3-methyl-4-oxo-2-thiazolidinylidene)urea]	9.96	–
CN1C(=O)CSC1=NC(=O)Nc1c(Cl)cccc1Cl [Example II, N-(2,6-dichlorophenyl)-N'-(3-methyl-4-oxo-2-thiazolidinylidene)urea]	28.3	–
O=C1CSC(=NC(=O)Nc2ccccc2)N1 [Example X-888, reference compound]	–	Mice MES test results (activity in words) (200 mg/kg p.o.): not active; Mice MES test results (IA) (200 mg/kg p.o., mice): IA
CN1C(=O)CSC1=NC(=O)Nc1c(F)cccc1F [Example X]	52.2	–
CCc1cccc(C)c1NC(=O)N=C1SCC(=O)N1C [III]	–	% block (MES test) [1]: 10%; Mice MES test results (activity in words) [1]: Active
Cc1cccc(Cl)c1NC(=O)N=C1SCC(=O)N1C [IV, N-(2-chloro-6-methylphenyl)-N'-(3-methyl-4-oxo-2-thiazolidinylidene)urea]	28.5	–
COc1cccc(OC)c1NC(=O)N=C1SCC(=O)N1C [IX]	35.7	–
Cc1cccc(C)c1NC(=O)N=C1NC(=O)CS1 [McN-4241, reference compound]	242	ED50 range, Mice MES test results (mice, p.o., range printed in parentheses with the ED50): 196.5 to 296.9 mg/kg
O=C1CSC(=NC(=O)Nc2c(Cl)cccc2Cl)N1 [McN-4242, reference compound]	–	Mice MES test results (IA) (200 mg/kg p.o., mice): IA
Cc1cccc(NC(=O)N=C2SCC(=O)N2C)c1C [VIII]	128	–
CN1C(=O)CSC1=NC(=O)Nc1c(Br)cccc1Br [VII]	83.9	–
CN1C(=O)CSC1=NC(=O)Nc1c(Br)cc(F)cc1Br [VI]	–	Mice MES test results (activity in words) (200 mg/kg p.o.): Active; % block (MES test) (200 mg/kg p.o., mice): 60%
CCc1cccc(CC)c1NC(=O)N=C1SCC(=O)N1C [V]	17.5	–
